From EP0038251A1, “Derivatives of osides, their preparation and their biological applications” (ANVAR Agence Nationale de Valorisation de la Recherche, priority 1980, dated 1981)

Test system: hémolysines anti-B
Test: Neutralisation of anti-B haemolysins: inhibition of one agglutinating dose of an anti-B test serum (European Pharmacopoeia techniques)
Type: biochemical
Settings: dilution 1/5 of a 10 mg/ml solution
Procedure: On utilise une solution à 10 mg/ml du produit de formule XXVI.

With `C[C@@H]1O[C@@H](O[C@H]2[C@H](OCCCOCCCN)O[C@H](CO)[C@H](O)[C@@H]2O[C@H]2O[C@H](CO)[C@H](O)[C@H](O)[C@H]2O)[C@@H](O)[C@H](O)[C@@H]1O` [trisaccharide XXVI] the “inhibition d'une dose agglutinante d'un sérum-test anti-B” value was “inhibition totale”.
